Results taken from patent US10344039B2, “Macrocyclic spirocarbamate derivatives as factor XIa inhibitors, pharmaceutically acceptable compositions and their use” (MERCK SHARP & DOHME CORP., priority 2015, dated 2019).

Molecular target: T1, purified human Factor XIa (Homo sapiens, UniProt P03951)
T1 construct: purified human Factor XIa; purchased Sekisui Diagnostics
Test: Factor XIa Assay
Assay type: biochemical
Settings: purified human Factor XIa 40 pM; substrate Z-Gly-Pro-Arg-AFC 100 μM; 50 mM HEPES pH 7.4; read-out: Hu FXIa Ki
Method: The effectiveness of a compound of the present invention as an inhibitor of Coagulation Factor XIa can be determined using a relevant purified serine protease, and an appropriate synthetic substrate. The rate of hydrolysis of the chromogenic or fluorogenic substrate by the relevant serine protease was measured both in the absence and presence of compounds of the present invention. Assays were conducted at room temperature or at 37° C. […] A decrease in the rate of fluorescence change in the presence of inhibitor is indicative of enzyme inhibition. Such methods are known to one skilled in the art. The results of this assay are expressed as the inhibitory constant, Ki.
Factor XIa determinations were made in 50 mM HEPES buffer at pH 7.4 containing 150 mM NaCl, 5 mM CaCl2, and 0.1% PEG 8000 (polyethylene glycol; JT Baker or Fisher Scientific). Determinations were made using purified human Factor XIa at a final concentration of 40 pM (Sekisui Diagnostics) and he synthetic substrate, Z-Gly-Pro-Arg-AFC, TFA salt (Sigma #C0980) at a concentration of 100 μM.
Activity assays were performed by diluting a stock solution of substrate at least tenfold to a final concentration ≤0.1 Km into a solution containing enzyme or enzyme equilibrated with inhibitor. Times required to achieve equilibration between enzyme and inhibitor were determined in control experiments. Initial velocities of product formation in the absence (Vo) or presence of inhibitor (Vi) were measured. Assuming competitive inhibition, and that unity is negligible compared Km/[S], [I]/e, and [I]/e (where [S], [I], and e respectively represent the total concentrations, of substrate, inhibitor and enzyme), the equilibrium constant (Ki) for dissociation of the inhibitor from the enzyme can be obtained from the dependence of Vo/Vi on [I] shown in the following equation. Vo/Vi=1+[I]/Ki
The activities shown by this assay indicate that the compounds of the invention may be therapeutically useful for treating or preventing various cardiovascular and/or cerebrovascular thromboembolic conditions in patients suffering from unstable angina, acute coronary syndrome, refractory angina, myocardial infarction, transient ischemic attacks, atrial fibrillation, stroke such as thrombotic stroke or embolic stroke, venous thrombosis, coronary and cerebral arterial thrombosis, cerebral and pulmonary embolism, atherosclerosis, deep vein thrombosis, disseminated intravascular coagulation, and reocclusion or restenosis of recanalized vessels. The Ki values measured for each of the example compounds of the invention using this assay are reported in the tables above (as “Hu FXIa Ki (nM)”).

T1 sequence (P03951 388-625 limits assumed): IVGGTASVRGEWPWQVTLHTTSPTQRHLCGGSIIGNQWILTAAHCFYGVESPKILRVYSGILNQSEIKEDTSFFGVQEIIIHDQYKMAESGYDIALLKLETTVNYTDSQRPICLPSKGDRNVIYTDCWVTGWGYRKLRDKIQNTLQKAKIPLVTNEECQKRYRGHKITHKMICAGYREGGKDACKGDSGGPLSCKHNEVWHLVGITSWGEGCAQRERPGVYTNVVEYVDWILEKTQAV
T1 sequence (P03951 19-387 partner limits assumed): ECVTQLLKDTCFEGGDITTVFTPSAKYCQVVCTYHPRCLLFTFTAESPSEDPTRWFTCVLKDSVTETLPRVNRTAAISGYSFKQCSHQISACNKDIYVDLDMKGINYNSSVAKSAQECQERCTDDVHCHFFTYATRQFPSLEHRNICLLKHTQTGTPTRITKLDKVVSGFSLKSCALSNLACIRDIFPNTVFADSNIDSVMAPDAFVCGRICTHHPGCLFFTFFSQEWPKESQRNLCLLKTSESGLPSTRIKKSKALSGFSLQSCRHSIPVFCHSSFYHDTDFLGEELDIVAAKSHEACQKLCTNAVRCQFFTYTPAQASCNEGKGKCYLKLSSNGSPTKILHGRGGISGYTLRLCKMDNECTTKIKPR

Ki | Structure (SMILES)
628 nM | CCOC(=O)C1CCCCC(C(=O)N2CCC[C@@]3(C2)OC(=O)Nc2ccc(Cl)c(F)c23)c2cc(ccn2)-c2cc(F)ccc2N1 (single isomer, unassigned) [Example 34a]
> 875 nM | CCOC(=O)C1CCCCC(C(=O)N2CCC[C@@]3(C2)OC(=O)Nc2ccc(Cl)c(F)c23)c2cc(ccn2)-c2cc(F)ccc2N1 (single isomer, unassigned) [Example 34b]
196 nM | CCOC(=O)C1CCCCC(C(=O)N2CCC[C@@]3(C2)OC(=O)Nc2ccc(Cl)c(F)c23)c2cc(ccn2)-c2cc(F)ccc2N1 (single isomer, unassigned) [Example 34c]
> 875 nM | CCOC(=O)C1CCCCC(C(=O)N2CCC[C@@]3(C2)OC(=O)Nc2ccc(Cl)c(F)c23)c2cc(ccn2)-c2cc(F)ccc2N1 (single isomer, unassigned) [Example 34d]
> 875 nM | O=C1Nc2ccc(Cl)c(F)c2[C@@]2(CCCN(C(=O)C3CCCCC(C(=O)O)Nc4ccc(F)cc4-c4ccnc3c4)C2)O1 (single isomer, unassigned) [Example 35a]
> 875 nM | O=C1Nc2ccc(Cl)c(F)c2[C@@]2(CCCN(C(=O)C3CCCCC(C(=O)O)Nc4ccc(F)cc4-c4ccnc3c4)C2)O1 (single isomer, unassigned) [Example 35b]
> 875 nM | CCOC(=O)C1CCCCC(C(=O)N2CC[C@@]3(C2)OC(=O)Nc2ccc(Cl)c(F)c23)c2cc(ccn2)-c2cc(F)ccc2N1 (single isomer, unassigned) [Example 36b]
> 875 nM | O=C1Nc2ccc(Cl)c(F)c2[C@@]2(CCN(C(=O)C3CCCCC(C(=O)O)Nc4ccc(F)cc4-c4ccnc3c4)C2)O1 (single isomer, unassigned) [Example 37a]
> 875 nM | O=C1Nc2ccc(Cl)c(F)c2[C@@]2(CCN(C(=O)C3CCCCC(C(=O)O)Nc4ccc(F)cc4-c4ccnc3c4)C2)O1 (single isomer, unassigned) [Example 37b]

The next lines start with the compound.

Structure (SMILES) | Ki
COC(=O)Nc1ccc2c(c1)NC(=O)CCCC[C@H](C(=O)N1CC[C@@]3(C1)OC(=O)Nc1ccc(Cl)cc13)c1nc-2c[nH]1 (single isomer, unassigned) [Example 1b] | 258 nM
O=C1CCCC[C@@H](C(=O)N2CCC[C@@]3(C2)OC(=O)Nc2ccc(Cl)cc23)c2nc(c[nH]2)-c2ccc(F)cc2N1 (single isomer, unassigned) [Example 2a] | 268 nM
O=C1CCCC[C@H](C(=O)N2CCC[C@@]3(C2)OC(=O)Nc2ccc(Cl)cc23)c2nc(c[nH]2)-c2ccc(F)cc2N1 (single isomer, unassigned) [Example 2b] | > 5000 nM
COC(=O)Nc1ccc2c(c1)NC(=O)CCCC[C@H](C(=O)N1CCC[C@@]3(C1)OC(=O)Nc1ccc(Cl)c(F)c13)c1nc-2c(C)[nH]1 (single isomer, unassigned) [Example 12a] | 471 nM
COC(=O)Nc1ccc2c(c1)NC(=O)C(C)CCCC(C(=O)N1CCC[C@@]3(C1)OC(=O)Nc1ccc(Cl)cc13)c1cc-2ccn1 (single isomer, unassigned) [Example 15b] | 749 nM
COC(=O)Nc1ccc2c(c1)NC(=O)C(C)CCCC(C(=O)N1CCC[C@@]3(C1)OC(=O)Nc1ccc(Cl)cc13)c1cc-2ccn1 (single isomer, unassigned) [Example 15c] | 1760 nM
COC(=O)Nc1ccc2c(c1)NC(=O)C(C)CCCC(C(=O)N1CCC[C@@]3(C1)OC(=O)Nc1ccc(Cl)cc13)c1cc-2ccn1 (single isomer, unassigned) [Example 15d] | > 5000 nM
Nc1ccc2c(c1)NC(=O)CC/C=C\C[C@H](C(=O)N1CCC[C@@]3(C1)OC(=O)Nc1ccc(Cl)c(F)c13)c1cc-2ccn1 (single isomer, unassigned) [Example 20b] | > 875 nM
COC(=O)Nc1ccc2c(c1)NC(=O)CCCC[C@H](C(=O)N1CC[C@@]3(C1)OC(=O)Nc1ccc(Cl)c(F)c13)c1cccc-2n1 (single isomer, unassigned) [Example 23a] | > 875 nM
CCOC(=O)C1CCCCC(C(=O)N2CCC[C@@]3(C2)OC(=O)Nc2ccc(Cl)c(F)c23)c2nc(c[nH]2)-c2ccc(NC(=O)OC)cc2N1 (single isomer, unassigned) [Example 32a] | 143 nM
CCOC(=O)C1CCCCC(C(=O)N2CCC[C@@]3(C2)OC(=O)Nc2ccc(Cl)c(F)c23)c2nc(c[nH]2)-c2ccc(NC(=O)OC)cc2N1 (single isomer, unassigned) [Example 32c] | 536 nM
CCOC(=O)C1CCCCC(C(=O)N2CCC[C@@]3(C2)OC(=O)Nc2ccc(Cl)c(F)c23)c2nc(c[nH]2)-c2ccc(NC(=O)OC)cc2N1 (single isomer, unassigned) [Example 32d] | > 875 nM
CCOC(=O)C1CCCCC(C(=O)N2CC[C@@]3(C2)OC(=O)Nc2ccc(Cl)c(F)c23)c2cc(ccn2)-c2cc(F)ccc2N1 (single isomer, unassigned) [Example 36a] | > 875 nM
COC(=O)Nc1ccc2c(c1)NC(=O)CCCC[C@H](C(=O)N1CCC[C@@]3(C1)OC(=O)Nc1ccc(Cl)cc13)c1nc-2c[nH]1 [Example 3b, methyl ((S,Z)-9-((R)-6-chloro-2-oxo-1,2-dihydrospiro[benzo[d][1,3]oxazine-4,3′-piperidine]-1′-carbonyl)-4-oxo-1^1H-3-aza-1(4,2)-imidazola-2(1,2)-benzenacyclononaphane-2^4-yl)carbamate] | 65 nM
O=C1CCCC[C@H](C(=O)N2CC[C@@]3(C2)OC(=O)Nc2ccc(Cl)cc23)c2nc(c[nH]2)-c2ccc(F)cc2N1 [Example 5a, (R)-6-chloro-1′-((S,Z)-2^4-fluoro-4-oxo-1^1H-3-aza-1(4,2)-imidazola-2(1,2)-benzenacyclononaphane-9-carbonyl)spiro[benzo[d][1,3]oxazine-4,3′-pyrrolidin]-2(1H)-one] | > 8750 nM
COC(=O)Nc1ccc2c(c1)NC(=O)CCCC[C@H](C(=O)N1CCC[C@@]3(C1)OC(=O)Nc1ccc(Cl)cc13)c1nc-2c(Cl)[nH]1 [Example 7b, methyl ((S,Z)-1^5-chloro-9-((R)-6-chloro-2-oxo-1,2-dihydrospiro[benzo[d][1,3]oxazine-4,3′-piperidine]-1′-carbonyl)-4-oxo-1^1H-3-aza-1(4,2)-imidazola-2(1,2)-benzenacyclononaphane-2^4-yl)carbamate] | 1830 nM
COC(=O)Nc1ccc2c(c1)NC(=O)CCCC[C@H](C(=O)N1CC[C@@]3(C1)OC(=O)Nc1ccc(Cl)c(F)c13)c1nc-2c(C)[nH]1 [Example 13a, methyl ((S,Z)-9-((R)-6-chloro-5-fluoro-2-oxo-1,2-dihydrospiro[benzo[d][1,3]oxazine-4,3′-pyrrolidine]-1′-carbonyl)-1^5-methyl-4-oxo-1^1H-3-aza-1(4,2)-imidazola-2(1,2)-benzenacyclononaphane-2^4-yl)carbamate] | 195 nM
COC(=O)Nc1ccc2c(c1)NC(=O)[C@H](C)CCC[C@H](C(=O)N1CCC[C@@]3(C1)OC(=O)Nc1ccc(Cl)c(F)c13)C1=NC=C2O1 [Example 14b, methyl ((5R,9S)-9-((R)-6-chloro-5-fluoro-2-oxo-1,2-dihydrospiro[benzo[d][1,3]oxazine-4,3′-piperidine]-1′-carbonyl)-5-methyl-4-oxo-3-aza-1(5,2)-oxazola-2(1,2)-benzenacyclononaphane-2^4-yl)carbamate] | 217 nM
